Activity calls are given as the source filed them. How the calls were made is not given here.
Assay: reduced viability of parasite-Hsp90 expressing yeast – ATP luminescence, 48 h, cherry-picked samples, anti-malarial Hsp90 inhibitor project, dose response (AID 540268);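 on activity change, negative = inhibition: 0% = neutral control wells and -100% = positive control wells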
Conditions: yeast expressing the parasite Hsp90, ATP luminescence; for activity change, negative = inhibition: at 26 µM (top of the series)

| SMILES | AC50 [µM] | activity change, negative = inhibition |
| --- | --- | --- |
| CCCCCCCCNC(=O)/C(C#N)=C/c1ccccc1[N+](=O)[O-] | 4.69 | – |
| Cc1c(CCCl)c(Cl)n2c(nc3ccccc32)c1C#N | 3.39 | – |
| O=C1S/C(=C\c2ccc(N3CCOCC3)o2)C(=O)N1Cc1c(F)cccc1Cl | 11.1 | – |
| CCN1/C(=C\c2ccc3ccccc3[n+]2CC)Sc2cc(C)ccc21 | 7.9 | – |
| Oc1c(CN2CCc3ccccc3C2)cc(Cl)c2cccnc12 | 7.82 | – |
| CN1CCN(C(c2ccc(Br)cc2)c2cc(Cl)c3cccnc3c2O)CC1 (stereo not drawn) | 0.535 | – |
| Oc1ccc2ccccc2c1/C=N/Nc1nnc(-c2ncc[nH]2)c2ccccc12 | 4.24 | – |
| O=[N+]([O-])c1ccc(NC(=S)NCCc2ccc(Cl)cc2)cc1 | 4.25 | – |
| CC(C)(C)c1nn(-c2ccccc2)c2[nH]c(=O)c(CNc3ccc4c(c3)OCCO4)cc12 | – | -106% (inactive) |
| Oc1cccc2ccc(/C=C/c3ccccc3Cl)nc12 | 16.3 | – |
| COc1cccc(F)c1C(C[N+](=O)[O-])c1c(N)n(C)c(=O)n(C)c1=O (stereo not drawn) | 4.3 | – |
| Nc1nonc1C(=O)NCCN=Cc1cc(Cc2ccccc2)cc(Br)c1O | 2.3 | – |
| CC1=CC2C(C(O)CC3(C)C2CC(C)C32OCOC23COCO3)C2(C)C/C(=C\O)C(=O)C=C12 (stereo not drawn) | 3.13 | – |
| CCn1c(CNc2ccc(Cl)cc2)nnc1SCc1ccccc1 | 2.26 | – |
| O=C(/C=C/c1ccccc1)CCN1CCOCC1 | 2.47 | – |
| CN(C)c1ccc(-n2cccc2/C=C/[N+](=O)[O-])cc1 | 4.83 | – |
| CC1(C)N=C(SCC(=O)Nc2ccc(Cl)cc2Cl)C(c2ccccc2)=N1 | – | 20.1% (inactive) |
| O=C(OCC(=O)N1CCN(C(=O)c2ccco2)CC1)c1cc(-c2cccc(Br)c2)nc2ccccc12 | 4.39 | – |
| CN(C)c1ccc(C=c2c3ccccc3n3c2cc(-c2ccccc2)[n+]3C)cc1 | 4.33 | – |
| O=C(C=P(c1ccccc1)(c1ccccc1)c1ccccc1)c1ccccc1-c1ccccc1C(=O)C=P(c1ccccc1)(c1ccccc1)c1ccccc1 | 5.12 | – |
| Cn1cncc1C#Cc1c(-c2ccsc2)sc2ccccc12 | 7.55 | – |
| CCN(CC)C1CC(=O)N(c2ccc(Br)cc2)C1=O (stereo not drawn) | 2.97 | – |

| SMILES | AC50 [µM] | activity change, negative = inhibition |
| --- | --- | --- |
| CCOc1ccccc1N1CCN(C(=O)c2cccc(-c3ccc(O)cc3)c2)CC1 | 5.08 | – |
| Cc1ccc(C(C[N+](=O)[O-])c2c(N)n(C)c(=O)n(C)c2=O)cc1 (stereo not drawn) | 3.33 | – |
| O=C(N/N=C/c1sc2ccccc2c1O)c1cccc2ccccc12 | 17 | – |
| CC(C)N1CCN(c2ccc(OCC3COC(Cn4cncn4)(c4ccc(Cl)cc4Cl)O3)cc2)CC1 (stereo not drawn) | 1.12 | – |
| Cc1cc(Br)c2c(c1)/C(=C/C(=O)c1cccs1)C(=O)N2 | – | -12.3% (inactive) |
| CN(C)/C=C/C(=O)c1ccc2noc(-c3ccccc3)c2c1 | 8.37 | – |
| Cc1ccc(NC(=S)N/N=C/c2ccc([N+](=O)[O-])s2)cc1 | 4.92 | – |
| O=C(OCn1ncc(Br)c(Br)c1=O)c1ccccc1Cl | 4.29 | – |
| Cc1cc2c(cc1C)CSC(c1c(O)ccc3ccccc13)SC2 | 4.26 | – |
| CCCCCCCCCCCCCCCC(O)C[N+](C)(C)CCO (stereo not drawn) | 6.61 | – |
| O=C(N/N=C/c1c(O)ccc2ccccc12)c1cccc(C(F)(F)F)c1 | 2.86 | – |
| CC(NC(=O)c1ccc(Br)cc1)c1ccc2c(c1)CCCC2 (stereo not drawn) | 1.37 | – |
| O=C1C=CC(=O)N1c1ccc(OC(F)F)cc1 | 0.421 | – |
| O=C1C=CC(=O)C2C1C1(Cl)C(Cl)=C(Cl)C2(Cl)C1(Cl)Cl (stereo not drawn) | 8.65 | – |
| CC(C)C1Nc2c(O)cc(Cl)c([N+](=O)[O-])c2C2C=CCC21 (stereo not drawn) | 6.63 | – |
| CN(C)CC1Oc2ccccc2OC1(O)c1ccccc1 (stereo not drawn) | 2.98 | – |
| Cc1ccc2nc(-c3ccc(NS(=O)(=O)c4ccc(F)cc4)cc3)sc2c1 | – | 144% (inactive) |
| Cc1ccc(-c2nc3cccnc3s2)cc1NS(=O)(=O)c1ccc2c(c1)OCCO2 | 4.12 | – |
| O=C(O)c1cccc(N/N=C/c2cc(Br)cc(Br)c2O)c1 | 1.15 | – |
| COc1ccc([N+](=O)[O-])c(S(=O)(=O)c2ccc(Cl)cc2)n1 | 1.27 | – |
| COC(=O)[C@@H]1[C@@H](C#N)C2(c3ccccc3-c3ccccc32)N(c2ccc(Cl)cc2)N1C#N | 2.81 | – |
| CC1Oc2cc3oc4c(O)c(O)ccc4c(=O)c3c(O)c2C1(C)C (stereo not drawn) | – | -0.538% (inactive) |

| SMILES | AC50 [µM] | activity change, negative = inhibition |
| --- | --- | --- |
| Oc1c(C(Nc2ccccn2)c2cccnc2)cc(Cl)c2cccnc12 (stereo not drawn) | 8.09 | – |
| Cc1cc(C)c2c(N=NN(C)C)[nH]nc2n1 | 3.92 | – |
| Cc1cc(-c2cc(-c3ccc(Cl)cc3)nc(N)c2C#N)co1 | 5.34 | – |
| CC1(C)CC[C@]2(C(=O)O)CC[C@]3(C)C(=CC[C@@H]4[C@@]5(C)CC[C@H](O[C@@H]6O[C@H](C(=O)O)[C@@H](O)[C@H](O[C@@H]7OC[C@H](O)[C@H](O)[C@H]7O)[C@H]6O)C(C)(C)[C@@H]5CC[C@]43C)[C@@H]2C1 | 1.06 | – |
| CCCCCCCCCCOC(=O)Cn1c(COc2ccc(Cl)cc2)[n+](C)c2ccccc21 | 4.25 | – |
| O=S(=O)(NC1CCCCCC1)c1ccc(Br)s1 | 3.13 | – |
| CCCCCCC(=O)N(O)C1CC(=O)N(c2ccc(Br)cc2)C1=O (stereo not drawn) | 2.22 | – |
| CCCOc1ccc(N2C(=O)CC(N3CCC(C(=O)OCC)CC3)C2=O)cc1 (stereo not drawn) | 6.07 | – |
| O=C(/C=C/c1cccc([N+](=O)[O-])c1)c1ccc([N+](=O)[O-])o1 | < 0.195 | – |
| O=C(OCc1ccccc1)c1ccc(NCc2cc(O)ccc2O)cc1 | 5.09 | – |
| O=C(Oc1ccc(Cl)c2cccnc12)c1cccnc1 | 7.85 | – |
| O=C(Nc1ccccc1Cl)/C(Cl)=C(\Cl)S(=O)c1ccccc1 (stereo not drawn) | 0.718 | – |
| Cc1ccc(NC(=S)NCC23C=CC(O2)C2C(=O)N(c4ccc(C)cc4)C(=O)C23)cc1 (stereo not drawn) | 8.61 | – |
| COc1ccc(/C=C2/CCC(CN3CCOCC3)C2=O)cc1 (stereo not drawn) | 0.751 | – |
| NC(=O)C1CCN(C2CC(=O)N(c3ccc(F)c(Cl)c3)C2=O)CC1 (stereo not drawn) | 1.67 | – |
| N/C(Cc1ccc(Cl)cc1)=N\OC(=O)c1cccc2ccccc12 | 2.19 | – |
| Clc1ccc(C(Cn2ccnc2)OCc2csc3c(Cl)cccc23)c(Cl)c1 (stereo not drawn) | < 0.195 | – |
| Cc1cc(N2CCN(C(=O)c3ccco3)CC2)n2nc(C)c(-c3ccccc3)c2n1 | 8.36 | – |
| O=C(OC12CC3CC(CC(C3)C1)C2)c1ccc(NCc2cc(O)ccc2O)cc1 | 8.91 | – |
| CCCCC(=O)NC(c1ccccc1)c1ccc2cccnc2c1O (stereo not drawn) | 23.6 | – |
| COc1cc(/C=C/[N+](=O)[O-])ccc1OC(=O)c1cc2ccccc2oc1=O | 1.3 | – |
| Cc1cccc(CS(=O)(=O)c2ncc(Cl)c(C(=O)Nc3ccc(F)cc3)n2)c1 | 2.92 | – |

| SMILES | AC50 [µM] | activity change, negative = inhibition |
| --- | --- | --- |
| O=[N+]([O-])c1cc(Br)c(Nc2ccccc2)c([N+](=O)[O-])c1 | 8.53 | – |
| O=C(Nc1nc(-c2ccco2)c(-c2ccco2)s1)c1ccco1 | 6.08 | – |
| COc1cccc(-c2nc(NC3CCCC3)c3ccccc3n2)c1O | 4.23 | – |
| Cc1ccc(NC(=O)c2cc(N3C(=O)C=CC3=O)ccc2N2CCOCC2)cc1Cl | < 0.195 | – |
| O=[N+]([O-])c1cccc(SSc2cccc([N+](=O)[O-])c2)c1 | 4.62 | – |
| Cc1ccc2c(c1C)-c1c(ccc(C)c1C)C(=O)C2=O | 2.67 | – |
| COc1cc(OC)cc(N2C(=O)CC(N3CCC(C(=O)N4CCCCC4)CC3)C2=O)c1 (stereo not drawn) | 8.21 | – |
| O=Nc1c(O)c2ccccc2c2ccccc12 | 1.57 | – |
| O=S(=O)(c1c(F)cccc1F)N(CCc1ccc(F)cc1)C[C@@H](O)COCc1ccccc1 | 1.2 | – |
| Cc1cc(C)c(S(=O)(=O)NCC23C=CC(O2)C2C(=O)N(c4ccccc4)C(=O)C23)c(C)c1 (stereo not drawn) | 3.21 | – |
| CC(CCc1ccccc1)NC(=O)c1ccc(Br)cc1 (stereo not drawn) | 4.71 | – |
| O=C(Nc1ccccc1N1CCOCC1)c1ccc([N+](=O)[O-])s1 | 8.44 | – |
| CN(C)c1ccc(/C=C/c2ccc3c4ccccc4ccc3[n+]2-c2ccccc2)cc1 | 3.47 | – |
| COc1cc(N2C(=O)C=CC2=O)c(OC)cc1Cl | 1.77 | – |
| COc1ccc(S(=O)(=O)N(C(=O)c2ccncc2)c2ccc(OC(=O)c3ccncc3)cc2)cc1 | 1.68 | – |
| N/C(=N\OC(=O)c1ccc2ccccc2c1)c1ccccc1Cl | 4.46 | – |
| COc1ccc2c(c1)c(=Cc1ccc(N(C)C)cc1)c1cc(-c3ccccc3)[n+](C)n12 | 6.32 | – |
| CCOC(=O)C1=C(CC)Nc2ccccc2N=C1NC(=O)Nc1ccc(Cl)c(Cl)c1 | 1.43 | – |
| NC(=Nc1nc(-c2ccccn2)cc2ccccc12)c1ccccn1 | 3.78 | – |
| Cc1ccc2c(c1)C(=O)C(=O)N2Cc1ccc(C(F)(F)F)cc1 | 7.78 | – |
| O=C1C=CC(=O)N1c1ccc(Nc2ccccc2)cc1 | < 0.195 | – |
| Cc1ccc(N=Cc2c(C)[nH]n(-c3nc4ccccc4[nH]3)c2=O)cc1 | 2.4 | – |

| SMILES | AC50 [µM] | activity change, negative = inhibition |
| --- | --- | --- |
| O=C(/C=C/c1ccccc1)NC(=S)NNC(=O)c1cnccn1 | 3.69 | – |
| Cc1cccc(Nc2nc(N)c([N+](=O)[O-])c(N3CC(C)CC(C)C3)n2)c1 (stereo not drawn) | 3.22 | – |
| COc1cc2c(cc1OC)C(=O)N1[C@H]3c4ccccc4OC[C@@H]3[C@H](c3ccccc3)[C@]1(C)C(=O)N2 | 8.37 | – |
| COc1ccc(/C=C/C(=O)c2cc(Br)ccc(=O)c2O)cc1 | 3.21 | – |
| COc1ccc(NC(=O)c2sc3ncnc(N4CCN(c5ccccn5)CC4)c3c2C)cc1Cl | 3.46 | – |
| CCCC(=O)NC(c1ccc(OC)cc1)c1ccc2cccnc2c1O (stereo not drawn) | 6.15 | – |
| Oc1c(Cl)cccc1Cc1cc(Cl)cc(Cl)c1O | 0.618 | – |
| O=C1C(Cl)=C(NCCc2ccccc2)C(=O)c2ccccc21 | 0.556 | – |
| COc1cccc(/C=N/Nc2ccc([N+](=O)[O-])cn2)c1O | 4.36 | – |
| O=C(CC(O)(C(F)(F)F)C(F)(F)F)Nc1ccc(Cl)c(Cl)c1 | 17.5 | – |
| O=[N+]([O-])c1ccc(N2N=C(c3ccccc3)CC2c2ccccc2O)cc1 (stereo not drawn) | 3.91 | – |
| CCCC(=O)NC(c1ccccc1Cl)c1ccc2cccnc2c1O (stereo not drawn) | 4.13 | – |
| CCOC(=O)c1c(C)oc2c1c(C(c1cccnc1)N1CCOCC1)c(O)c1ccccc12 (stereo not drawn) | 5.35 | – |
| C[C@@H]1C[C@@H]([C@H](O)CC2CC(=O)NC(=O)C2)C(=O)[C@@H](C)C1 | < 0.195 | – |
| CCCCCCCCCCCCCCCC[N+](C)(C)CCN(Cc1ccc(OC)cc1)c1ncccn1 | 4.14 | – |
| CCOC(=O)C1=C(Cc2ccc(Cl)cc2)C(=O)c2ccccc2C1=O | – | -104% (inactive) |
| O=C(O)c1cccc2c1Cc1cc(Cl)ccc1-2 | 1.13 | – |
| O=C(NCCCSc1ccccc1)c1cc(Br)ccc1O | 7.37 | – |
| CCOc1ccc2nc(NC(=O)c3ccoc3C)sc2c1 | 6.99 | – |
| COc1ccc(C(C)(C)C)cc1NC(=O)Nc1ccc2c(c1)OCO2 | 8.96 | – |

Source: PubChem BioAssay AID540268 (Broad Institute, 2011)
